Measurements published in patent US11685739B2, “High penetration drugs and their compositions thereof for treatment of Parkinson diseases” (TECHFIELDS PHARMA CO., LTD, priority 2013, dated 2023).
Counter-ions that a name gives are not always drawn. Like-named read-outs stand apart in the source and are kept apart here.

Experiments:
[1] = Penetration rates through human skin in vitro, modified Franz cells; details: through human skin (360-400 μm), receiving fluid pH 7.4 phosphate buffer (0.2 M)
[2] = tested on: motor function deficits induced by 6-OHDA in Parkinson's disease (PD) model; test: Rotarod test in rats with 6-OHDA lesion, Parkinson's disease (PD) model; assay type: in vivo, Sprague-Dawley rats; details: for Efficacy of low dose compared with moderate and high dose groups: 0.67 mg/kg transdermal (group 3) vs 2 mg and 6 mg/kg (groups 4 and 5); for Efficacy in Rotarod test comparing to vehicle group and positive control group: four-week treatment
[3] = human, pH 7.4

Row | Structure (SMILES) | The cumulative amount of test compounds ([3]; 1 h) | The cumulative amount of test compounds ([3]; 2 h) | The cumulative amount of test compounds ([3]; 4 h) | The cumulative amount of test compounds ([3]; 8 h) | also measured
1 | CC(C)Cc1ccc(C(C)C(=O)O)cc1 (centres unmarked) [Compound-33, 2-(ρ-isobutylphenyl)propionic acid] | – | – | – | – | The cumulative amount of test compounds ([1]; 1 h): 0.001 mg; The cumulative amount of test compounds ([1]; 2 h): 0.001 mg; The cumulative amount of test compounds ([1]; 4 h): 0.002 mg; The cumulative amount of test compounds ([1]; 8 h): 0.003 mg
2 | Br.CCC(CC)OC(=O)[C@@H](N)Cc1ccc(OC(=O)C(C)C)c(OC(=O)C(C)C)c1 [Compound-15, (S)-4-(2-amino-3-oxo-3-(pentan-3-yloxy)propyl)-1,2-phenylene bis(2-methylpropanoate) hydrobromide] | 0.55 mg | 1.08 mg | 2.23 mg | 4.41 mg | Efficacy of low dose compared with moderate and high dose groups ([2]; Example 33): much higher than that of the moderate and high dose groups; Side effects (dyskinesia at peak dose, end-of-dose deterioration of function etc.) ([2]; Example 33, L-DOPA orally, pro-drug transdermally): avoided dyskinesia at peak dose, and end-of-dose deterioration of function
3 | CCCC(CCC)OC(=O)[C@@H](N)Cc1ccc(OC(=O)c2ccccc2)c(OC(=O)c2ccccc2)c1.Cl [Compound-12, (S)-4-(2-amino-3-(heptan-4-yloxy)-3-oxopropyl)-1,2-phenylene dibenzoate hydrochloride] | 0.53 mg | 1.07 mg | 2.13 mg | 4.29 mg | Efficacy of low dose compared with moderate and high dose groups ([2]; Example 36): much higher than that of the moderate and high dose groups
4 | CCCN(CCC)CCOC(=O)c1cc(-c2ccc(F)cc2F)ccc1OC(C)=O.Cl [Compound-27, 2-(dipropylamino)ethyl 4-acetoxy-2′,4′-difluoro-[1,1′-biphenyl]-3-carboxylate hydrochloride] | 1.01 mg | 2.03 mg | 4.11 mg | 8.25 mg | Efficacy in Rotarod test comparing to vehicle group and positive control group ([2]; Example 36, 15 mg and 45 mg/kg transdermal): good efficacy
5 | CC(=O)O.CCN(CC)CCOC(=O)C(C)c1ccc(CC(C)C)cc1 (centres unmarked) [Drug D, 2-(diethylamino)ethyl 2-(4-isobutylphenyl)propionate acetic acid salt] | – | – | – | – | Efficacy in Rotarod test comparing to vehicle group and positive control group ([2]; Example 33, 15 mg and 45 mg/kg transdermal): good efficacy
6 | Cl.NCCc1ccc(O)c(O)c1 [Compound-30, 4-(2-aminoethyl)benzene-1,2-diol hydrochloride] | – | – | – | – | The cumulative amount of test compounds ([1]; 1 h): 0.12 mg; The cumulative amount of test compounds ([1]; 2 h): 0.25 mg; The cumulative amount of test compounds ([1]; 4 h): 0.52 mg; The cumulative amount of test compounds ([1]; 8 h): 1.05 mg
7 | Cl.NCCc1ccc(OC(=O)c2ccccc2)c(OC(=O)c2ccccc2)c1 [Compound-10, 4-(2-aminoethyl)-1,2-phenylene dibenzoate hydrochloride] | – | – | – | – | The cumulative amount of test compounds ([1]; 1 h): 0.68 mg; The cumulative amount of test compounds ([1]; 2 h): 1.35 mg; The cumulative amount of test compounds ([1]; 4 h): 2.74 mg; The cumulative amount of test compounds ([1]; 8 h): 5.55 mg
8 | CC(C)OC(=O)[C@H](Cc1ccc(OC(=O)c2ccccc2)c(OC(=O)c2ccccc2)c1)NC(=O)OC1CCN2CCCCC12 (stereo partly drawn) [Compound-22, 4-((2S)-3-isopropoxy-2-((((octahydroindolizin-1-yl)oxy)carbonyl)amino)-3-oxopropyl)-1,2-phenylene dibenzoate acetate] | 0.45 mg | 0.89 mg | 1.78 mg | 3.61 mg | –
9 | CCC(CC)OC(=O)[C@H](Cc1ccc(OC(=O)c2ccccc2)c(OC(=O)c2ccccc2)c1)NC(=O)C1CCCN1 (stereo partly drawn) [Compound-17, 4-((2S)-3-oxo-3-(pentan-3-yloxy)-2-(pyrrolidine-2-carboxamido)propyl)-1,2-phenylene dibenzoate hydrofluoride] | 0.58 mg | 1.15 mg | 2.33 mg | 4.71 mg | –
10 | CNCC(=O)Oc1cc(C[C@H](NC(=O)OC(C)OC(=O)C(C)C)C(=O)OC(C)C)ccc1OC(=O)c1ccccc1 (stereo partly drawn) [Compound-21(b), 4-((2S)-2-(((1-(isobutyryloxy)ethoxy)carbonyl)amino-3-isopropoxy-3-oxopropyl)-2-(2-(methylamino)acetoxy)phenyl benzoate hydrochloride] | 0.51 mg | 1.05 mg | 2.08 mg | 4.19 mg | –
11 | C[C@@](Cc1ccc(O)c(O)c1)(NN)C(=O)O [carbidopa] | – | – | – | – | Effect on efficacy of L-Dopa and pro-drug of L-Dopa (Drug A) treated groups ([2]; Example 32, carbidopa 1.5 mg/kg orally, groups 1, 3, 4, 5, 6, 7, 9, 10, 4 weeks treatment): increased efficacy; Effect on efficacy of vehicle group and pro-drug of aspirin (Drug B) treated groups ([2]; Example 32, carbidopa 1.5 mg/kg orally, groups 2, 8 and 11, 4 weeks treatment): did not change the efficacy; Effect on efficacy of L-Dopa and pro-drug of L-Dopa treated groups ([2]; Example 34, carbidopa 1.5 mg/kg orally, groups 1, 3, 4, 5, 6, 7, 9, 10 (L-DOPA, Drug C), 4 weeks treatment): increased efficacy; Effect on efficacy of vehicle group and pro-drug of ibuprofen treated groups ([2]; Example 34, carbidopa 1.5 mg/kg orally, groups 2, 8 and 11 (Drug D), 4 weeks treatment): did not change the efficacy
12 | CC(C(=O)OCCCCN(C)C)c1cccc(Oc2ccccc2)c1.Cl (centres unmarked) [Drug F, 4-(dimethylamino)butyl 2-(3-phenoxyphenyl) Propionate Hydrochloride] | – | – | – | – | Efficacy in Rotarod test comparing to vehicle group and positive control group ([2]; Example 35, 20 mg and 60 mg/kg transdermal): good efficacy
13 | CC(C(=O)SCCN(C)C)c1cccc(Oc2ccccc2)c1.Cl (centres unmarked) [Compound-26] | 1.17 mg | 2.33 mg | 4.65 mg | 9.31 mg | –
